Assay in all cases: Kinase profile (33P ATP filter binding)
Common to all, as to assay type: biochemical

The target of one test is TTBK1 (Homo sapiens, UniProt Q5TCY1). The conditions noted are these: read-out: Remaining protein kinase activity. The method, then: (§1) The compounds were diluted to the appropriate concentration. The compounds were added to a “mother plate” consisting of samples, controls, and blanks. These serve as the source for “daughter plates” which are stored at −20 °C until assay initiation. Protein Kinases: Enzyme/Substrate mixture was added to the compound, and the compounds were incubated for five minutes at room temperature (RT). ^33P ATP was added to the compounds to initiate the assay. Orthophosphoric acid was added to the compounds to halt the assay. Assay components were harvested onto P81 filter plates, filter plates were air-dried, scintillation fluid was added to plates, and counts were read on a Topcount NXT. A mean percentage activity was calculated.
TTBK1, sequence (Q5TCY1 whole entry): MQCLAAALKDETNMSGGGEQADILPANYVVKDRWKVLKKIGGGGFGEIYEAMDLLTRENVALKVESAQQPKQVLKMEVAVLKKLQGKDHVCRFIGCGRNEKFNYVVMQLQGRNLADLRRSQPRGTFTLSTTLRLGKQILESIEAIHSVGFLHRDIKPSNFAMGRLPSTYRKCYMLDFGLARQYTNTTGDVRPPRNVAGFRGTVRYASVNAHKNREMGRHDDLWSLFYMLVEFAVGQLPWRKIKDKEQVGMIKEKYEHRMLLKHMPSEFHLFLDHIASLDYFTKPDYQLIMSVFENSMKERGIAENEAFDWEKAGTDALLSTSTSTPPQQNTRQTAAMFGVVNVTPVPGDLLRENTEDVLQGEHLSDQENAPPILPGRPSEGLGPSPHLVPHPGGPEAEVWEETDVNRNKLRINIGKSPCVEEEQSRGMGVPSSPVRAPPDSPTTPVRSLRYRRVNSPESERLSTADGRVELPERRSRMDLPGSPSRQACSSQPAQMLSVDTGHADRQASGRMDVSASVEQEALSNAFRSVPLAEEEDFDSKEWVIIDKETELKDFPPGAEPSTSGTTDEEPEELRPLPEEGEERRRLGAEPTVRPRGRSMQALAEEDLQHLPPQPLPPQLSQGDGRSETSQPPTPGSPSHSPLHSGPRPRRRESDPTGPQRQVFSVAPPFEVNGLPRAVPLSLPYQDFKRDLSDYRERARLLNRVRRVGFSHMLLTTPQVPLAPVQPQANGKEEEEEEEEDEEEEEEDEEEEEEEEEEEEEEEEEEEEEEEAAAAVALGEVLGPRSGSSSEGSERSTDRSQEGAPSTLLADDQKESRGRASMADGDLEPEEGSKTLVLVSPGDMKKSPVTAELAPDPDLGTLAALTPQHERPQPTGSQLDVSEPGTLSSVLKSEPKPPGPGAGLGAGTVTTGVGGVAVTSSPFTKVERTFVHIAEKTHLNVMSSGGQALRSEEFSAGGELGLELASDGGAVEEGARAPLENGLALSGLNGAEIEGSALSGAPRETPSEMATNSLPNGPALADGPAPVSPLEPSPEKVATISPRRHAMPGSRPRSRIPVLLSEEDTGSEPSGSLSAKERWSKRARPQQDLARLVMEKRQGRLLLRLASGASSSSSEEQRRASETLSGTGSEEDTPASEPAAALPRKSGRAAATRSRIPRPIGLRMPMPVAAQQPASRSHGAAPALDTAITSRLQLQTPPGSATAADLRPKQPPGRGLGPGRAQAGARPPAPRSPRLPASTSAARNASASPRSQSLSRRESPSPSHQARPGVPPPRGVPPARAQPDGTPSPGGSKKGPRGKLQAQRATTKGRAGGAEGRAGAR

The target of the next test is T1, TTK (Homo sapiens, UniProt P33981).
T1 sequence (P33981 1-857): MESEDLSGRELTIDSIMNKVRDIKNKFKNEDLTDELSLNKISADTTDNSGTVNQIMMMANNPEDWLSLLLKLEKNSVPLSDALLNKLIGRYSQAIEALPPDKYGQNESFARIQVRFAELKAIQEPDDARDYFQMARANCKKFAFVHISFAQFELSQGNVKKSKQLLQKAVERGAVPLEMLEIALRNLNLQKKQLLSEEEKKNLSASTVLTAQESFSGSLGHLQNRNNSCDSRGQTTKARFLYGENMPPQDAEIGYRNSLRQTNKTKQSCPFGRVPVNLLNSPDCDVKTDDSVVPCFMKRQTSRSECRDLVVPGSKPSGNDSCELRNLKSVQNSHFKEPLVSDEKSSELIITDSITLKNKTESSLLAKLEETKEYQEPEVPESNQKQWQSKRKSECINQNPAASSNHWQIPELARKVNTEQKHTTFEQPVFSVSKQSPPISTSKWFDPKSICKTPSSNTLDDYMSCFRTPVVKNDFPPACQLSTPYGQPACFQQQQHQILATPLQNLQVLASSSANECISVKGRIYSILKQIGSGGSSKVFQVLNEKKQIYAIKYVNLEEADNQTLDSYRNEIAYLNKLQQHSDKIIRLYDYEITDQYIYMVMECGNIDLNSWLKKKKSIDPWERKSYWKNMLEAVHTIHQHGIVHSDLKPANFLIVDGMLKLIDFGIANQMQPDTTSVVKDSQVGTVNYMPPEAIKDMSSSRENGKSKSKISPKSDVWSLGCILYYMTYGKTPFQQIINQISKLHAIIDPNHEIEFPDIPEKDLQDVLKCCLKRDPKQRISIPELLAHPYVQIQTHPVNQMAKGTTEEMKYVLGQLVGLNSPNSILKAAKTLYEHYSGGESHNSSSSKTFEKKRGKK
As to conditions: read-out: Remaining protein kinase activity. The method, then:
as §1

The next test has as its target T2, MARK4 (Homo sapiens, UniProt Q96L34).
T2 sequence (Q96L34 1-752): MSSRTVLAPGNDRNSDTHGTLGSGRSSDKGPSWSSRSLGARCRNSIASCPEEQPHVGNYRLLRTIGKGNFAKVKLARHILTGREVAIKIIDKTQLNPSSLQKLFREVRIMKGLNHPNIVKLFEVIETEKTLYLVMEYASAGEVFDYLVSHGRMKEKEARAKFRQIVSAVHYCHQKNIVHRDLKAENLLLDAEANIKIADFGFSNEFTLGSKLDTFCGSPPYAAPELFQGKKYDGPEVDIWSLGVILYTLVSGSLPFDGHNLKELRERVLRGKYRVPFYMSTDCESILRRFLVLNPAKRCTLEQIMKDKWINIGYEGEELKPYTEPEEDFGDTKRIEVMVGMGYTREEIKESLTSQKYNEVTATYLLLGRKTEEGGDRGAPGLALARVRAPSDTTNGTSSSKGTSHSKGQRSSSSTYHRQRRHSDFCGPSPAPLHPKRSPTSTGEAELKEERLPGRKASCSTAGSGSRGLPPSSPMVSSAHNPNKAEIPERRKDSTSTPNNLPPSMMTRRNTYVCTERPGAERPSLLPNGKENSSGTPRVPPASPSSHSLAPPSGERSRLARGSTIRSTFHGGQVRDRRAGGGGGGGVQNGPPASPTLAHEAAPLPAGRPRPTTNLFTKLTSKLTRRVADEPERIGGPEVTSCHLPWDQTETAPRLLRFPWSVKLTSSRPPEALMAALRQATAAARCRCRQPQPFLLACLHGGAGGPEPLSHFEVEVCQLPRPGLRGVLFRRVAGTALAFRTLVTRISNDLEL
The method, then: as §1

A further test addresses BTK (Homo sapiens, UniProt Q06187). The method, then: as §1
The target in another test is T3, p38g MAPK (Homo sapiens, UniProt P53778).
T3 sequence (P53778 1-367): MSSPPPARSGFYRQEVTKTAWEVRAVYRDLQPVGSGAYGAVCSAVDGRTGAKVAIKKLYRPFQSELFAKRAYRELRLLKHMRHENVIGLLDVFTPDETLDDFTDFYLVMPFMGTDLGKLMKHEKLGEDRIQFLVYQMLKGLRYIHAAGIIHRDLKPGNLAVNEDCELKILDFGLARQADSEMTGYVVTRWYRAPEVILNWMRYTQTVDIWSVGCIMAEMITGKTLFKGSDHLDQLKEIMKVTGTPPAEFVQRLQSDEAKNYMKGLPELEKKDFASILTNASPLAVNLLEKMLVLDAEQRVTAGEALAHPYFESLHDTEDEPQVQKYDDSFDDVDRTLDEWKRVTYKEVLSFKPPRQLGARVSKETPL
The conditions noted are these: read-out: Remaining protein kinase activity. On the procedure: as §1

A further test addresses OSR1 (Homo sapiens, UniProt O95747). The conditions noted are these: read-out: Remaining protein kinase activity. On the procedure:
as §1

For another test, the target named is JNK2 (Homo sapiens, UniProt P45984). The method, then: as §1
JNK2, sequence (P45984 whole entry, species assumed): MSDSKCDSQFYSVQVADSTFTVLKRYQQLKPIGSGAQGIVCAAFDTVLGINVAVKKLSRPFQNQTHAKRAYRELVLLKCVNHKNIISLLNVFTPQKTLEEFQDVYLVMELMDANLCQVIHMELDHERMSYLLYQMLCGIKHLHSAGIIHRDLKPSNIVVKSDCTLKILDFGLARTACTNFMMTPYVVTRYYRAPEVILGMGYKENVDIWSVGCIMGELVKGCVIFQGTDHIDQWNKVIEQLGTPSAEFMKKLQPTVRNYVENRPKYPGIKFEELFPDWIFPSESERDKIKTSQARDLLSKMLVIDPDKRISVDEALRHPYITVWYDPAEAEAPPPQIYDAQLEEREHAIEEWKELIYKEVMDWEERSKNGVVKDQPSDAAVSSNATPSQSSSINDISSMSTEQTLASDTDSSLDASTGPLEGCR

Where two headings read alike, the source gives them in different places.

OSR1, sequence (O95747 whole entry): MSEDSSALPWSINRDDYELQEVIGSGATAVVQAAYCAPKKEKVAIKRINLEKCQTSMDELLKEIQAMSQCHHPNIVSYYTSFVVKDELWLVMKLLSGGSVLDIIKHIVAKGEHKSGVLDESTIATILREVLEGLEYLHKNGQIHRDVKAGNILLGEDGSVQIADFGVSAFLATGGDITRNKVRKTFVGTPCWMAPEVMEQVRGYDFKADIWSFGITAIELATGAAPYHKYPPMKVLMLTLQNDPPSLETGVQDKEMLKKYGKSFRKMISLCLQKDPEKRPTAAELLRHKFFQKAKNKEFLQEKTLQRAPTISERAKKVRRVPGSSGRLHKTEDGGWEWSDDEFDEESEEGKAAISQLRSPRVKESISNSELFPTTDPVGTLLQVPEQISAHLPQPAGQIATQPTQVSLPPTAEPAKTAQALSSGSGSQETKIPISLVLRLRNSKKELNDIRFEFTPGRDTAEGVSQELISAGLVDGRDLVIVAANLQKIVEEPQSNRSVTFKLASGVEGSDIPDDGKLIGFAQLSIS
BTK, sequence (Q06187 whole entry): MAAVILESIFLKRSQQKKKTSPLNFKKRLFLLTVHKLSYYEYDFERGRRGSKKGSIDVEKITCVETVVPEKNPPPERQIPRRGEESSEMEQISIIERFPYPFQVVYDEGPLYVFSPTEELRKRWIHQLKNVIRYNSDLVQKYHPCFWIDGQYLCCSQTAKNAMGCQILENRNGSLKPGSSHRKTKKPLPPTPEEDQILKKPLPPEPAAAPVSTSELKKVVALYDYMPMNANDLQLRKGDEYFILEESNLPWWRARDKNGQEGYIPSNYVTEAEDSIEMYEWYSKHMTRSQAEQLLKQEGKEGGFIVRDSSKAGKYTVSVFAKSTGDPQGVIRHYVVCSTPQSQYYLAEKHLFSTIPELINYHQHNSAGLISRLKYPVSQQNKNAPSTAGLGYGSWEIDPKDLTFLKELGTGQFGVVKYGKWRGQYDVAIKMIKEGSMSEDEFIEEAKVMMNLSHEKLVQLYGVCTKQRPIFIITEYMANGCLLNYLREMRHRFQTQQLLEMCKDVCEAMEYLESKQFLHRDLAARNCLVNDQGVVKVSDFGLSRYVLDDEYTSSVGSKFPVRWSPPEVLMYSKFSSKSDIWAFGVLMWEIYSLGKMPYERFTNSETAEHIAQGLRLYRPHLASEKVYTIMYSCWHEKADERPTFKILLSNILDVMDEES

One may read the remaining activity as the signal under treatment as a percentage of the control signal. On to `COc1ccc2sc(-c3cncc(NC(C)=O)c3)nc2c1` [PST-001, N-(5-(5-Methoxybenzo[d]thiazol-2-yl)pyridin-3-yl)acetamide], for which the remaining activity at 100 µM on TTBK1 (TTBK1) was found to be 110%; on TTK, 69%; on p38g MAPK, 105%; on OSR1, 136%. The remaining activity at 1 µM at TTBK1 worked out at 109%; on TTK, 88%; on p38g MAPK, 125%; at OSR1, 120%. Also, the “Remaining protein kinase activity” value at MARK4 (1 μM) was determined as 121%; on MARK4 (100 μM), 103%; on BTK (1 μM), 92%; at BTK (100 μM), 86%; at JNK2 (1 μM), 126%; on JNK2 (100 μM), 129%.
Take `COc1ccc2sc(-c3cncc(N)c3)nc2c1` [compound 1, 5-(5-Methoxybenzo[d]thiazol-2-yl)pyridin-3-amine]: the remaining activity at 1 µM turned out to be 109% at TTBK1 (TTBK1, 1 μM); 86% on TTK (TTK, 1 μM); 110% at p38g MAPK (p38g MAPK, 1 μM); 128% at OSR1 (OSR1, 1 μM). For the same molecule, the remaining activity at 100 µM came to 90% at TTBK1 (TTBK1); 47% at TTK (TTK, 100 μM); 37% at p38g MAPK (p38g MAPK, 100 μM); 111% on OSR1 (OSR1, 100 μM). The “Remaining protein kinase activity” value is 131% on MARK4 (1 μM); 58% at MARK4 (100 μM); 101% on BTK (1 μM); 31% at BTK (100 μM); 123% on JNK2 (1 μM); 104% at JNK2 (100 μM).

The values above are taken from publication PMC8617627, “Novel DYRK1A Inhibitor Rescues Learning and Memory Deficits in a Mouse Model of Down Syndrome” (Pharmaceuticals, 2021).
